The results in this text go back to US9034876B2, “Treatment of chronic inflammation with a 1,2,4-triazolo [1,5a] pyridine derivative” (Cephalon, Inc., priority 2010, dated 2015).

In the assay the test system is phospho-STAT3. Nature of the assay: CAIA model, paw phospho-STAT3 (Luminex bead assay). The assay is classed as in vivo, female DBA/1 mice. The settings on record: Dex 1.5 mg/kg i.p. three times a week (day 6-8).

Description: DBA/1 female mice were injected i.v. with purified anti-collagen type II antibodies, then given 25 μg of LPS i.p. three days later to induce arthritis by day 5. Mice that met the arthritis criteria score of 1 per paw were entered into the study. Compound A was provided orally, b.i.d., for all doses tested; Dex was provided at 1.5 mg/kg three times a week, i.p.; and vehicle (PEG400+1% DMSO) was provided orally.
The graphed data was generated using Luminex® bead kits, concentration in units per ml per 3 mg of total protein as determined by the BSA assay. The graphed data represents mean±SEM, statistics were performed using 2-way ANOVA analysis.
To investigate the effect of Compound A on levels of phosphorylated STATs and cytokines in the paws of treated mice, a method was developed whereby synovial fluid and cellular joint extracts could be obtained from the paws and ankles of diseased animals for analysis using multiplex bead arrays [32]. […] Consequently, multiplex analysis was used as the primary method of measuring phosphorylated STATs for all experiments described herein.
Briefly, the front (including carpus) and back (including tarsus) right paws were collected and frozen in dry-ice cooled isopentane and stored at −80° C. until use. The paws were cut to 2 mm×2 mm segments and kept on dry-ice in round bottom polypropylene tubes. Seven hundred microliters tissue extraction buffer containing protease inhibitor cocktail (Calbiochem, San Diego, Calif.) and Halt phosphatase inhibitor cocktail (Thermo Scientific, Rockford, Ill.) or Roche phosphatase inhibitor cocktail (Roche, Indianapolis, Ind.) in tissue extraction reagent I (Invitrogen, Carlesbad, Calif.) were added to each sample. Samples were homogenized frozen using a PT 10-35 Polytron homogenizer. After homogenization, samples were centrifuged at 4° C. for 2000×g for 10 minutes and supernatants re-centrifuged at 4° C. at maximum speed, 14,000×g, for 15 minutes. Supernatants were carefully removed to avoid picking up the top layer of lipids/adipose debris. Protein concentration was measured using a BCA protein assay (Pierce, Rockford, Ill.) and adjusted to 3 mg/ml. A minimum of 25 μl of this extraction was used in the above described protocol using the mouse cytokine 10-plex bead kit (Invitrogen, Carlsbad, Calif.) or phosphorylated STAT1, 3, 5a/b, 3-plex kit (Invitrogen, Carlsbad, Calif.).

Consider `C[C@@H]1C[C@H]2[C@@H]3CCC4=CC(=O)C=C[C@]4(C)[C@@]3(F)[C@@H](O)C[C@]2(C)[C@@]1(O)C(=O)CO` [Dex, Dexamethasone, reference compound], for which the “time post treatment initiation at which the pSTAT3 reduction was reached” value turned out to be 48 hours.
